These results are taken from publication PMC4104309, “Estradiol Binds to Insulin and Insulin Receptor Decreasing Insulin Binding in vitro” (Frontiers in Endocrinology, 2014).

Where “and” joins values, the source holds several entries; their conditions need not be identical. Identical values can stand only once. Counter-ions that a name gives are not always drawn. Like-named read-outs stand apart in the source and are kept apart here. Where only a bound is given, the exact number is not on record here.

In data set [1] the target is recombinant human insulin (Humulin) (Homo sapiens, UniProt P01308). The data set is described as follows: UV spectroscopy binding of sex hormones to recombinant human insulin (Humulin). The note with it: for Binding to INS (in words): UV spectroscopic studies, discussion summary.
Chain of recombinant human insulin (Humulin) (P01308 with tags, fused parts or gaps): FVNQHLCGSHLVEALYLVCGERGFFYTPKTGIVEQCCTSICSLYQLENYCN
Chain of recombinant human insulin (Humulin) (P01308 with tags, fused parts or gaps): as above
In data set [2] the target is IR α 233–248 peptide of the human insulin receptor (Homo sapiens, UniProt P06213). Nature of the data set: UV spectroscopy binding to insulin receptor peptide IR α 233–248.
Data set [3] addresses T1, IR α 424–441 peptide of the human insulin receptor (Homo sapiens, UniProt P06213).
T1 construct: IR α 424–441; made in house; host or cells: chemical peptide synthesis (Michigan State University facility)
The data set is described as follows: UV spectroscopy binding to insulin receptor peptide IR α 424–441. From the text: Humulin R was obtained from Lilly.

Data set [4] has as its target IR α 453–464 peptide of the human insulin receptor (Homo sapiens, UniProt P06213). Nature of the data set: UV spectroscopy binding to insulin receptor peptide IR α 453–464.
The target of data set [5] is IR α 284–300 peptide of the human insulin receptor (Homo sapiens, UniProt P06213). Nature of the data set: UV spectroscopy binding to insulin receptor peptide IR α 284–300.
In data set [6] the target is oxidized insulin B chain (Insulin beta chain) (Bos taurus, UniProt P01317). Nature of the data set: UV spectroscopy binding to oxidized insulin B chain. The conditions noted are these: read-out: Binding constant to individual oxidized INS B chain. The source says: (§1) Additions were made serially.
Chain of oxidized insulin B chain (Insulin beta chain) (P01317 25-54): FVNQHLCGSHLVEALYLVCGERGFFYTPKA
Data set [7] relates to insulin receptor (IR) isolated from rat liver. The data set is described as follows: Enzyme-linked INS binding assay: effect of E2 on INS–HRP binding to IR.
The target of data set [8] is IR α 105–118 peptide of the human insulin receptor (Homo sapiens, UniProt P06213). The data set is described as follows: UV spectroscopy binding to insulin receptor peptide IR α 105–118.
Data set [9] can be described thus: Concentration of E2 in E2-saturated buffer with INS–HRP or IR, by capillary electrophoresis. The conditions noted are these: crystals in buffer, at least 48 h room temperature; CE read-out. The format is physicochemical.
Data set [10] deals with oxidized insulin A chain (Insulin alpha chain) (Bos taurus, UniProt P01317). The data set is described as follows: UV spectroscopy binding to oxidized insulin A chain.
Chain of oxidized insulin A chain (Insulin alpha chain) (P01317 85-105): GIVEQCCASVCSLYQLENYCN
Data set [11] concerns Human recombinant INS. The data set is described as follows: Capillary electrophoresis: E2 in solution with and without insulin. The note with it: mean ± SD of the five EI/E ratios (10, 15, 20, 25, 30 kV).
In data set [12] the target is human INS-like growth factor receptor (IGFR) (Homo sapiens, UniProt P08069). The data set is described as follows: UV spectroscopy (serial addition) binding of estradiol to IGFR. The note with it: human recombinant IGFR, biphasic. On the procedure: Rat IR membrane preparation (I-9266) (IR) and human INS-like growth factor receptor (IGFR) (I-4657) were obtained from Sigma-Aldrich. The rat IR was a partially purified preparation in residual membrane and contained 250 units of activity as measured by its ability to catalyze the incorporation of 1 pmol per min of phosphate from γ-^32P-ATP into poly(Glu, Tyr), 4:1, at 30°C. The IGFR was recombinant, at least 95% pure by SDS-PAGE, and capable of binding INS-like growth factor. Both receptor preparations, in sum, retained activity.
Chain of human INS-like growth factor receptor (IGFR) (P08069 with tags, fused parts or gaps): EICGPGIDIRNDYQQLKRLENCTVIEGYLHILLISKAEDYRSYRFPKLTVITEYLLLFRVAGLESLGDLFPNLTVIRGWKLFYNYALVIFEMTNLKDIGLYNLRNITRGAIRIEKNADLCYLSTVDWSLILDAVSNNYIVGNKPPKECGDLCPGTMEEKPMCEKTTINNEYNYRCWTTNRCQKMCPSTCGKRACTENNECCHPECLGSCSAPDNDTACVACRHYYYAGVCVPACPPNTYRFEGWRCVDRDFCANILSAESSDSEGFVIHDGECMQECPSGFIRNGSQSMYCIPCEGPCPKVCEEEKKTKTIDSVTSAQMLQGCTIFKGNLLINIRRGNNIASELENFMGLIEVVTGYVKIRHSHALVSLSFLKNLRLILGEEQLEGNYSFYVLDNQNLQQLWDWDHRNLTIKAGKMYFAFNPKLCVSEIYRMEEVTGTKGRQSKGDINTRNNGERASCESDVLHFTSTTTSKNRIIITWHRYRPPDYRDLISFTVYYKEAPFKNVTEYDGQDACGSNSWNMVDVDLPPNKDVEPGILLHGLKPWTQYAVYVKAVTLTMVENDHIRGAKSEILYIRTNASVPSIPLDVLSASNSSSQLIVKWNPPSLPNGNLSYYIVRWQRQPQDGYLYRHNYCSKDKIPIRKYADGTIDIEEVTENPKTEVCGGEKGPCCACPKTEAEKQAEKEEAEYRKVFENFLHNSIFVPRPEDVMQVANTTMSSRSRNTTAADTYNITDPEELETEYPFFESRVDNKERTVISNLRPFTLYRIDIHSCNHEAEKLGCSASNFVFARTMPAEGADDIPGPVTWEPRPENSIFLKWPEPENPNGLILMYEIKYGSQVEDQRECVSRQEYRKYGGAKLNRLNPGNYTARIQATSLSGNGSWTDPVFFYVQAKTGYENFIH
as §1
This serial addition method was also used to determine the binding of estradiol to IR and IGFR.

Data set [13] addresses IR α 91–103 peptide of the human insulin receptor (Homo sapiens, UniProt P06213). Nature of the data set: UV spectroscopy binding to insulin receptor peptide IR α 91–103.
In data set [14] the target is IR α 392–404 peptide of the human insulin receptor (Homo sapiens, UniProt P06213). The data set is described as follows: UV spectroscopy binding to insulin receptor peptide IR α 392–404.
The target of data set [15] is IR β 897–916 peptide of the human insulin receptor (Homo sapiens, UniProt P06213). Nature of the data set: UV spectroscopy binding to insulin receptor peptide IR β 897–916.
Chain of IR β 897–916 peptide of the human insulin receptor (P06213 897-916 limits assumed): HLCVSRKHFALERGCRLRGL
Data set [16] deals with INS binding. The note with it: 10^−8 M 17β-estradiol in the culture medium; ref Hilf et al. ([80]); cited from earlier work.
Data set [17] concerns INS binding. The conditions noted are these: 1 mg dose of E2, within 24 h; ref Hilf et al. ([80]); cited from earlier work.
The target in data set [18] is Glucagon (Homo sapiens, UniProt P01275). Nature of the data set: UV spectroscopy binding to glucagon (control).
Chain of Glucagon (P01275 53-81): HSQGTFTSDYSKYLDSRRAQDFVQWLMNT
Data set [19] has as its target IR α 223–234 peptide of the human insulin receptor (Homo sapiens, UniProt P06213). Nature of the data set: UV spectroscopy binding to insulin receptor peptide IR α 223–234.
Data set [20] has as its target IR α 223–234 (human).
The target of data set [21] is IR α 392–404 (human).
The target of data set [22] is IR α 424–441 (human).
For data set [23], the target named is IR α 233–248 (human).
Data set [24] has as its target IR α 91–103 (human).
Setting [25] is: UV spectroscopy, peptide 100 nM in pH 7.4 phosphate buffer, 30 min room temperature, duplicates averaged.
[26] abbreviates: Binding constant to recombinant human INS, UV spectroscopy.

Take `C[C@]12CC[C@@H]3c4ccc(O)cc4CC[C@H]3[C@@H]1CC[C@H]2O` [17α-Estradiol]: the Kd in [1] stood at 10 µM. Further, in data set [1] (UV spectroscopy, serial additions, even at 1 μM (Figure 2)), the “Binding to INS (in words), serial additions” value is listed as “does not bind significantly”.

On to `C[C@]12CC[C@@H]3c4ccc(O)cc4CC[C@H]3[C@@H]1CC[C@@H]2O` [17β-Estradiol (E2), 17β-Estradiol], for which the Kd in data set [2] was more than 500 µM; in data set [3] (setting [25]), more than 500 µM; in data set [1] it was 0.012 µM; in data set [1] (Binding constant (Kd) to INS, high affinity binding, UV spectroscopy) it was ~0.012 µM and 0.012 µM; in data set [1] (read-out: Binding constant to INS, low affinity binding, UV spectroscopy, biphasic binding), 65 µM; in data set [4], more than 500 µM. Moreover, the Kd in [5] is 0.9 µM; in data set [6], 150 µM; in data set [8], 280 µM; in [10] (read-out: Binding constant to individual oxidized INS A chain, UV spectroscopy), 220 µM; in data set [12] (read-out: Binding to IGFR, high affinity binding), approximately 0.1 µM; in [12] (read-out: Kd to IGFR, lower affinity binding), more than 10 µM. For the same compound, the Kd was 120 µM in [13], more than 500 µM in data set [14], 0.78 µM in data set [15] and more than 500 µM in data set [19]. Moreover, the “Shift of INS–HRP/IR binding curve to the right” value in data set [7] (E2 incubated with either INS–HRP or the IR alone, E2 initially 200 nM, about 22 nM at curve mid-point, duplicates averaged) was “half”; in data set [7] (both the IR and INS–HRP exposed to E2, E2 about 22 nM at curve mid-point) it was 0.8 log units. For the same compound, the “Concentration of E2 in E2-saturated phosphate buffer in the presence of INS or IR” value in data set [9] is given as “ca. 60 ng/ml”. For the same compound, the “Binding to the insulin A chain (in words), serial additions” value in data set [10] (UV serial addition, 1000 times the concentration of E2 used in Figure 2 (Figure 3)) is “no binding was apparent”. Also, the “EI/E ratio, mean ± SD” value in data set [11] is 3.96 ± 0.45. The “Decrease of INS binding in cell culture” value in data set [16] is given as ~ 20%. The “Decrease of INS binding in rats” value in [17] is recorded as not above 50%. In [18], the “Binding to glucagon (in words)” value is reported as “does not bind with measurable affinity”.

For the compound `C[C@]12CCC(=O)C=C1CC[C@@H]1[C@@H]2CC[C@]2(C)C(=O)CC[C@@H]12` [Andro-stenedione, 4-andro-stenedione], the Kd in [2] is more than 500 µM; in data set [3] it was more than 500 µM; in data set [1], 13.5 µM; in data set [4], more than 500 µM; in [5], more than 500 µM; in data set [8], more than 500 µM. The Kd in data set [13], in [14], in data set [15] and in data set [19] was more than 500 µM in each case.

As for `CC(C)CCC[C@@H](C)[C@H]1CC[C@H]2[C@@H]3CC=C4C[C@@H](O)CC[C@]4(C)[C@H]3CC[C@]12C` [Cholesterol], the Kd in data set [2], in data set [1], in data set [4], in data set [5], in data set [8] and in data set [13] was more than 500 µM in each case. Moreover, the Kd in [14], in [15] and in data set [19] was more than 500 µM each time.

As for `C[C@]12C[C@H](O)[C@H]3[C@@H](CCC4=CC(=O)CC[C@@]43C)[C@@H]1CC[C@@H]2C(=O)CO` [Corticosterone], the Kd in [1] is 21.1 µM.

Take `C[C@]12CC[C@@H]3c4ccc(O)cc4CC[C@H]3[C@@H]1C[C@@H](O)[C@@H]2O` [Estriol]: the Kd in [2] was more than 500 µM; in data set [3] (setting [25]), 380 µM; in [1], more than 500 µM; in data set [1] (setting [26]) it was more than 500 µM; in data set [4] it was 390 µM; in data set [5] it was more than 500 µM. Besides, the Kd in data set [8], in data set [13], in data set [14], in data set [15] and in data set [19] was more than 500 µM in each case.

Take `C[C@]12CC[C@@H]3c4ccc(O)cc4CC[C@H]3[C@@H]1CCC2=O` [Estrone]: the Kd was more than 500 µM in data set [2]; more than 500 µM in data set [3] (setting [25]); 1.25 µM in [1]; more than 500 µM in data set [4]; more than 500 µM in data set [5]; more than 500 µM in data set [8]. The Kd in data set [13], in data set [14], in data set [15] and in data set [19] was more than 500 µM each time.

For `O=c1c(-c2ccc(O)cc2)coc2cc(O)cc(O)c12` [Genistein], in data set [1], the Kd was more than 500 µM and the “Binding to INS (in words)” value is listed as “negligible binding”.

For the compound `C[C@]12CCC(=O)C=C1CC[C@@H]1[C@@H]2[C@@H](O)C[C@@]2(C)[C@H]1CC[C@]2(O)C(=O)CO` [Hydrocortisone], in [1], the Kd came out at 63.5 µM.

In the case of `CC(=O)[C@H]1CC[C@H]2[C@@H]3CC=C4C[C@@H](O)CC[C@]4(C)[C@H]3CC[C@]12C` [Pregnenolone, 5-Pregnen-3β-ol-20-one], the Kd in data set [3] (setting [25]) is more than 500 µM.

For the compound `CC(=O)[C@H]1CC[C@H]2[C@@H]3CCC4=CC(=O)CC[C@]4(C)[C@H]3CC[C@]12C` [Progesterone], the Kd in data set [2], in data set [1], in [4], in [5], in [8] and in data set [13] was more than 500 µM each time. Moreover, the Kd in [14], in data set [15] and in data set [19] was more than 500 µM throughout.

For the compound `O=C(c1ccc(OCCN2CCCCC2)cc1)c1c(-c2ccc(O)cc2)sc2cc(O)ccc12` [Raloxifene, Raloxifene HCl], in data set [1], the Kd was determined as 130 µM and the “Binding to INS (in words)” value is given as “negligible binding”. Besides, the Kd in [1] (setting [26]) is 130 µM.

In the case of `CC/C(=C(\c1ccccc1)c1ccc(OCCN(C)C)cc1)c1ccccc1` [Tamoxifen, Tamoxifen citrate salt], in data set [1], the Kd was more than 500 µM and the “Binding to INS (in words)” value was “negligible binding”.

For “insulin conjugated to horse-radish peroxidase (ligand)”, the Kd in data set [20] is more than 500 µM; in data set [21], 0.3 µM; in data set [22] it was more than 500 µM; in data set [23], 0.008 µM; in [24], 0.07 µM.
